# Assay results: publication PMC4604124, “In Vitro Characterization of the Pharmacological Properties of the Anti-Cancer Chelator, Bp4eT, and Its Phase I Metabolites” (PLoS ONE, 2015)
# Where “and” joins values, the source holds several entries; their conditions need not be identical. Equal entries are not always repeated.
# Assays:
# [1] = tested on: labile iron pool of MCF-7 cells; assay: Calcein-AM assay, access to the labile iron pool; type: cell-based, human; design: Calcein fluorescence: unit not given here; conditions: 10 μM; for Calcein fluorescence: mean (průměr)
# Description: These experiments were performed according to Glickstein et al. with slight modifications. The MCF-7 cells were seeded in 96-well plates (10,000 cells/well) and allowed to adhere for 24 h/37°C. Cells were loaded with iron using the cellular iron donor, ferric ammonium citrate (530 μg/mL), 24 h prior to the experiment, and then washed. To prevent potential interference, especially with regard to various trace elements, the medium was replaced with ADS buffer (prepared using Millipore water supplemented with 116 mM NaCl, 5.3 mM KCl, 1 mM CaCl2, 1.2 mM MgSO4, 1.13 mM NaH2PO4, 5 mM D-glucose, and 20 mM HEPES, pH 7.4). Cells were then loaded with 2 μM of the cell-permeable calcein green acetoxymethyl ester (calcein-AM; Molecular Probes, Oregon, USA) for 30 min/37°C and washed. Cellular esterases cleave the acetoxymethyl groups to form the cell membrane-impermeable compound, calcein green. The fluorescence of calcein green is quenched upon binding iron. The intracellular fluorescence (λex = 488 nm; λem = 530 nm) of calcein green was then followed as a function of time (10 min after the addition of 10 μM Bp4eT or its metabolites) at 37°C using the Tecan Infinite 200M plate reader. The iron chelation efficacy of the metabolites in cells was expressed as a percentage of the efficacy of the parent chelator, Bp4eT (100%).
# [2] = Ascorbate oxidation assay (redox activity of iron complexes); type: biochemical;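 for %Fe 30min (ascorbate oxidation, Fe 100%), průměr: IBE 3 means excess free chelator over iron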;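 for %Fe 30min (ascorbate oxidation, Fe 100%): IBE 3 means excess free chelator over iron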;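 for %Fe 30min (ascorbate oxidation, Fe = 100%), průměr (mean): IBE 1 means iron-binding equivalents giving fully coordinated iron-chelator complexes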;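 for %Fe 30min (ascorbate oxidation, Fe = 100%), single replicates: IBE 1 means iron-binding equivalents giving fully coordinated iron-chelator complexes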;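 for %Fe 30min: ascorbate oxidation as % of the Fe control (Fe 100%): IBE 0.1 means iron-binding equivalents with iron in excess over chelator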;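 for Change of absorbance, odečet 0 (time 0 subtracted), čas 10, průměr: IBE 3 means excess free chelator over 10 µM FeCl3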;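 for Change of absorbance, odečet 0 (time 0 subtracted), čas 10: IBE 3 means excess free chelator over 10 µM FeCl3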;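 for Change of absorbance, odečet 0 (time 0 subtracted), čas 20, průměr: 100 µM ascorbate with 10 µM FeCl3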;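 for Change of absorbance, odečet 0 (time 0 subtracted), čas 20: 100 µM ascorbate with 10 µM FeCl3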;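 for Change of absorbance, odečet 0 (time 0 subtracted), čas 30, průměr: 100 µM ascorbate with 10 µM FeCl3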;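 for Change of absorbance, odečet 0 (time 0 subtracted), čas 30: 100 µM ascorbate with 10 µM FeCl3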;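 for odečet 0 (reading minus time 0 reading) at čas 20, single replicates: IBE 1 means fully coordinated iron chelator complexes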;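 for odečet 0 (reading minus time 0 reading) at čas 30, průměr (mean): IBE 1 means fully coordinated iron chelator complexes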;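 for odečet 0 (reading minus time 0 reading) at čas 30, single replicates: IBE 1 means fully coordinated iron chelator complexes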;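 for raw reading at čas 20 (time 20), průměr (mean): IBE 1 means fully coordinated iron chelator complexes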;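 for raw reading at čas 20 (time 20), single replicates: IBE 1 means fully coordinated iron chelator complexes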;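 for raw reading at čas 30 (time 30), průměr (mean): IBE 1 means fully coordinated iron chelator complexes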;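 for raw reading at čas 30 (time 30), single replicates: IBE 1 means fully coordinated iron chelator complexes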
# [3] = tested on: MCF-7 cells prelabeled with 59Fe2-transferrin; assay: Mobilization (efflux) of cellular 59Fe; type: cell-based, human; design: Efflux 59Fe / Efflux 59Fe, Ave: unit not given here
# Text: Human transferrin (Sigma) was labeled with ^56Fe or ^59Fe (PerkinElmer, Massachusetts, USA) to produce ^56Fe2-transferrin or ^59Fe2-transferrin (^59Fe2-Tf), respectively, with a final specific activity of 500 pCi/pmol Fe, as previously described. Unbound ^59Fe was removed by exhaustive vacuum dialysis against a large excess of 0.15 M NaCl buffered to pH 7.4 with 1.4% NaHCO3 by standard methods.
# To examine the ability of studied compounds to mobilize cellular ^59Fe from MCF-7 cells, iron efflux experiments were performed using established techniques. In brief, after pre-labeling confluent MCF-7 cells on 6-well plates with 0.75 μM ^59Fe2-Tf for 3 h/37°C, the cells were washed four times with ice-cold PBS and then subsequently incubated with 25 μM of Bp4eT or its metabolites for 3 h/37°C. The overlying medium containing released ^59Fe was then decanted from the cells. Radioactivity was measured in both the cells and the supernatant using a γ-scintillation counter (Wallac Wizard 3, Turku, Finland).
# MCF-7 cells = assay: Cell cycle analysis by flow cytometry (propidium iodide); type: cell-based, human; conditions: 0.1 μM, 72 h, control 33%
# Description: To examine the effect of the agents on the cell cycle, MCF-7 cells were seeded in 60 mm Petri dishes at a density of 240,000 cells/dish and incubated with Bp4eT or its metabolites for 72 h/37°C. The cells were then harvested, fixed by ethanol and stained by propidium iodide (Molecular Probes, Eugene, OR, USA) for 30 min/37°C, as described previously. Cells were analyzed using Accuri C6 flow cytometer (Becton Dickinson and Company, San Jose, CA USA). Propidium iodide was excited at λex = 488 nm and fluorescence analyzed at λem = 585 nm (FL-2) with a total of 10,000 events collected per analysis.
# SigmaStat for Windows 3.5 (Systat Software, San Jose, CA, USA) statistical software package was utilized to analyze results. The data are expressed as the mean ± SD of a given number of experiments. Statistical significance was determined using a one-way ANOVA with a Bonferroni post-hoc test or Student’s t-test. The results were considered to be statistically significant when p < 0.05. The IC50 values were calculated using CalcuSyn 2.0 software (Biosoft, Cambridge, UK). Cell cycle analysis was evaluated using MultiCycle AV Software (Phoenix Flow Systems, San Diego, CA, USA).
# [4] = sheet IBE 1, time 10, replicates
# [5] = sheet IBE 1, time 20, replicates
# [6] = sheet IBE 1, time 30, replicates
smiles,measurement,setting,value
"CCN=CNN=C(c1ccccc1)c1ccccn1 [Bp4eA, N ^3-ethyl-N ^1-[phenyl(pyridin-2-yl)methylene]formamidrazone]",Calcein fluorescence,[1]; 30 sec,16.628
same,Calcein fluorescence,[1]; 60 sec,5.072
same,Calcein fluorescence,[1]; 90 sec,8.535
same,Calcein fluorescence,[1]; 120 sec,16.564
same,Calcein fluorescence,[1]; 300 sec,13.356
same,Calcein fluorescence,[1]; 600 sec,12.951
same,Chelation efficacy: fluorescence of free calcein at t = 600 s as percentage of Bp4eT,"[1]; MCF-7, mean of 6 experiments",5.9% and 5.872%
same,%Fe 30min: ascorbate oxidation as % of the Fe control (Fe 100%),"[2]; IBE 0.1, 30 min, mean (průměr)",102.5%
same,Change of absorbance after subtraction of time 0 (odečet 0),"[2]; IBE 0.1, time 10, mean (průměr)",-0.03561
same,Change of absorbance after subtraction of time 0 (odečet 0),"[2]; IBE 0.1, time 20, mean (průměr)",-0.0674
same,Change of absorbance after subtraction of time 0 (odečet 0),"[2]; IBE 0.1, time 30, mean (průměr)",-0.09706
same,"Absorbance (ascorbate, λ = 265 nm)","[2]; IBE 0.1, čas 0 (time 0), mean (průměr)",0.8401
same,"Absorbance (ascorbate, λ = 265 nm)","[2]; IBE 0.1, čas 10 (time 10), mean (průměr)",0.8044
same,"Absorbance (ascorbate, λ = 265 nm)","[2]; IBE 0.1, čas 20 (time 20), mean (průměr)",0.7727
same,"Absorbance (ascorbate, λ = 265 nm)","[2]; IBE 0.1, čas 30 (time 30), mean (průměr)",0.743
same,"%Fe 30min (ascorbate oxidation, Fe = 100%), průměr (mean)","[2]; sheet IBE 1, 30min, Fe 100%, mean",106.5%
same,"%Fe 30min (ascorbate oxidation, Fe = 100%), single replicates","[2]; sheet IBE 1, 30min, Fe 100%, replicates",113.3% and 104.9% and 102.6% and 110.5% and 113.6% and 110.3% and 106.1% and 101.1% and 95.68%
same,"raw reading at čas 0 (time 0), průměr (mean)","[2]; sheet IBE 1, time 0, mean of 9 readings",0.8163
same,"raw reading at čas 0 (time 0), single replicates","[2]; sheet IBE 1, time 0, replicates of 2014-03-24 (two runs) and 2014-03-25",0.8356 and 0.8379 and 0.8058 and 0.8059 and 0.8041 and 0.8006 and 0.8152 and 0.8134 and 0.828
same,"odečet 0 (reading minus time 0 reading) at čas 10, průměr (mean)","[2]; sheet IBE 1, time 10, mean",-0.03248
same,"raw reading at čas 10 (time 10), průměr (mean)","[2]; sheet IBE 1, time 10, mean of 9 readings",0.7838
same,"odečet 0 (reading minus time 0 reading) at čas 10, single replicates",[2]; [4],-0.02971 and -0.02191 and -0.02781 and -0.03858 and -0.03648 and -0.03745 and -0.03205 and -0.03185
same,"raw reading at čas 10 (time 10), single replicates",[2]; [4],0.7761 and 0.784 and 0.7763 and 0.762 and 0.7787 and 0.7769 and 0.7906 and 0.8036 and 0.8061
same,"odečet 0 (reading minus time 0 reading) at čas 20, průměr (mean)","[2]; sheet IBE 1, time 20, mean",-0.06498
same,"raw reading at čas 20 (time 20), průměr (mean)","[2]; sheet IBE 1, time 20, mean of 9 readings",0.7513
same,"odečet 0 (reading minus time 0 reading) at čas 20, single replicates",[2]; [5],-0.0647 and -0.0595 and -0.0576 and -0.07087 and -0.07167 and -0.06987 and -0.06821 and -0.06221 and -0.06021
same,"raw reading at čas 20 (time 20), single replicates",[2]; [5],0.7411 and 0.7464 and 0.7465 and 0.7297 and 0.7435 and 0.7598 and 0.7734 and 0.7777
same,"odečet 0 (reading minus time 0 reading) at čas 30, průměr (mean)","[2]; sheet IBE 1, time 30, mean",-0.09465
same,"raw reading at čas 30 (time 30), průměr (mean)","[2]; sheet IBE 1, time 30, mean of 9 readings",0.7216
same,"odečet 0 (reading minus time 0 reading) at čas 30, single replicates",[2]; [6],-0.09786 and -0.09066 and -0.08866 and -0.09551 and -0.09811 and -0.09531 and -0.1001 and -0.09539 and -0.09029
same,"raw reading at čas 30 (time 30), single replicates",[2]; [6],0.7079 and 0.7152 and 0.7154 and 0.7051 and 0.7171 and 0.7181 and 0.7279 and 0.7402 and 0.7477
same,"%Fe 30min (ascorbate oxidation, Fe 100%), průměr","[2]; sheet IBE 3, 30min, Fe alone = 100%, mean (průměr) of the 9 replicates",105.3%
same,"%Fe 30min (ascorbate oxidation, Fe 100%)","[2]; sheet IBE 3, 30min, Fe alone = 100%, single replicates",100.1% and 103.3% and 98.42% and 112.4% and 108.5% and 106.2% and 109.9% and 107% and 102%
same,"Change of absorbance, odečet 0 (time 0 subtracted), čas 10, průměr","[2]; sheet IBE 3, time 10 minus time 0, mean (průměr)",-0.03537
same,"Change of absorbance, odečet 0 (time 0 subtracted), čas 10","[2]; sheet IBE 3, time 10 minus time 0, single replicates",-0.03156 and -0.03676 and -0.03266 and -0.04073 and -0.03893 and -0.03883 and -0.03458 and -0.03388 and -0.03038
same,"Change of absorbance, odečet 0 (time 0 subtracted), čas 20, průměr","[2]; sheet IBE 3, time 20 minus time 0, mean (průměr)",-0.06757
same,"Change of absorbance, odečet 0 (time 0 subtracted), čas 20","[2]; sheet IBE 3, time 20 minus time 0, single replicates",-0.06509 and -0.07099 and -0.06549 and -0.07376 and -0.07016 and -0.07036 and -0.06559 and -0.06109
same,"Change of absorbance, odečet 0 (time 0 subtracted), čas 30, průměr","[2]; sheet IBE 3, time 30 minus time 0, mean (průměr)",-0.0973
same,"Change of absorbance, odečet 0 (time 0 subtracted), čas 30","[2]; sheet IBE 3, time 30 minus time 0, single replicates",-0.09296 and -0.09586 and -0.09136 and -0.1043 and -0.1007 and -0.0986 and -0.1006 and -0.09796 and -0.09336
same,"Efflux 59Fe, Ave",[3]; average of all replicates,3.53
same,Efflux 59Fe,[3]; single replicate (three per date),4.0325 and 2.6377 and 3.5208 and 3.7889 and 3.2967 and 3.9821 and 3.9608 and 3.1218 and 3.4276
same,Percentage of cells in the G2/M phase,MCF-7 cells,"slight, but significant (p < 0.01–0.05) decrease"
